Columns and labels:
[1] = test system: MOLM13 and Kasumi-1 cell lines; assay: Annexin/PI flow cytometry apoptosis of shRNA-stable cells treated with KPT-9274; format: cell-based, human; details: KPT-9274 at sublethal IC20 dose, 48 hour
Description: FIGS. 2A-2M show show representative data for genetic depletion of HDAC8 or SIRT6 increases vulnerability of AML cell lines to KPT-9274 treatment. FIGS. 2A-2D show data for knockout efficiency of CDS- and 3′UTR-targeting shRNAs in MOLM13 and Kasumi-1 cells as assessed with Western blotting (FIGS. 2A, 2D) with GAPDH as a loading control. Densitometric quantification of protein band intensity is shown (n=2) in FIGS. 2B, 2E. FIGS. 2E-2H show representative data for depletion of HDAC8 or SIRT6 (as indicated in graphs) and sensitization of AML cell lines to KPT-9274 treatment. Dose-response curves of shRNA-stable MOLM13 and Kasumi-1 cells for 24-hour and 48-hour treatments are plotted. Cell viability was measured with MTS. […] Scrambled or gene-targeting shRNA-stable MOLM13 or Kasumi-1 cells were treated with IC20 dose of KPT-9274 for 48 hour and stained with Annexin/PI for flow cytometry analysis. Data are shown as mean±SEM of % population from duplicates. FIGS. 2K-2L show representative data that KPT-9274 attenuates AML self-renewal and induces myeloid differentiation in HDAC8 or SIRT6-depleted cells. Quantification of the number of colonies formed by shRNA-stable Kasumi-1 and MOLM13 cells in the presence or absence of KPT-9274 in CFU assays. Indicated number of cells were seeded into Methocult and colonies were counted and replated by a double-blind approach after 7 days. […]

[2] = test system: shRNA-stable Kasumi-1 and MOLM13 cells; assay: CFU serial replating assay of shRNA-stable cells with KPT-9274; format: cell-based, human
Description: FIGS. 2A-2M show show representative data for genetic depletion of HDAC8 or SIRT6 increases vulnerability of AML cell lines to KPT-9274 treatment. FIGS. 2A-2D show data for knockout efficiency of CDS- and 3′UTR-targeting shRNAs in MOLM13 and Kasumi-1 cells as assessed with Western blotting (FIGS. 2A, 2D) with GAPDH as a loading control. Densitometric quantification of protein band intensity is shown (n=2) in FIGS. 2B, 2E. FIGS. 2E-2H show representative data for depletion of HDAC8 or SIRT6 (as indicated in graphs) and sensitization of AML cell lines to KPT-9274 treatment. Dose-response curves of shRNA-stable MOLM13 and Kasumi-1 cells for 24-hour and 48-hour treatments are plotted. Cell viability was measured with MTS. […] Scrambled or gene-targeting shRNA-stable MOLM13 or Kasumi-1 cells were treated with IC20 dose of KPT-9274 for 48 hour and stained with Annexin/PI for flow cytometry analysis. Data are shown as mean±SEM of % population from duplicates. FIGS. 2K-2L show representative data that KPT-9274 attenuates AML self-renewal and induces myeloid differentiation in HDAC8 or SIRT6-depleted cells. Quantification of the number of colonies formed by shRNA-stable Kasumi-1 and MOLM13 cells in the presence or absence of KPT-9274 in CFU assays. Indicated number of cells were seeded into Methocult and colonies were counted and replated by a double-blind approach after 7 days. Results are shown as mean±SEM of duplicates. *p<0.05. **p<0.01. […] For each condition, images were randomly taken from 6-12 fields of view. Scale bar=50 μm.
Colony-forming unit (CFU) assays. Age-matched cryopreserved primary cells from bone marrow and apheresis of AML patients with various co-mutations and CD34^+ healthy bone marrow cells were acquired from Ohio State University Comprehensive Cancer Center Leukemia Tissue Bank. […] Formed colonies were counted blindly after 7-14 days and re-plated at 10,000 cells/well. The images of colonies were captured with Echo revolving microscope. The images of Giemsa staining of cytospin preparations were acquired by CX43 Olympus inverted microscope. […]

[3] = test system: MOLM13 cells; assay: MTS cell viability of shRNA-stable or sgRNA-transfected MOLM13 cells treated with KPT-9274; format: cell-based, human; details: MOLM13, 48-hour treatment
Protocol: FIGS. 7A-7B show representative data for knockdown of selected genes has modest effects on MOLM13 responses to KPT-9274 treatment. […] For the graphs in FIGS. 7A-7B, the responses of parental, shRNA-stable and sgRNA-transfected MOLM13 cells to KPT-9274 treatment (48-hour treatments) are plotted. Cell viability was measured with MTS (y-axis). Results are shown as mean±SEM of 4 technical replicates and 3 biological replicates. Western blotting for knockdown efficiency is shown.
MTS assay. For MTS assays, AML cell lines or patient-derived cells were treated in a 96-well plate at 1-6×10^5 cells per well for 24-72 hours. Patient-derived CD34^+ primary cells were cultured in 96-well plates coated with collagen in the presence of 10 ng/ml IL-3, 10 ng/ml IL-6, 10 ng/ml SCF and 10 ng/ml GM-CSF. Cells were treated with increasing concentrations of KPT-9274 (0 nM to 10 μM) or vehicle control (dimethyl sulfoxide [DMSO]). […] MTS [3-(4,5-dimethylthiazol-2-yl)-5-(3-carboxymethoxyphenyl)-2-(4-sulfophenyl)-2H-tetrazolium](Pro-mega, Madison, WI) was incubated with drug-treated cells according to the manufacturer's instructions. Plates were read by using a BioTek synergy H4 hybrid multimode microplate reader (Thermo Fisher Scientific) at 490 nM. […]

[4] = test system: leukemia stem cells; details: caspase-dependent apoptosis, Ref. 28; cited from earlier work
[5] = in vivo; cited from earlier work

Question: For `Nc1ccc(/C=C/C(=O)NCc2cc3cc(-c4ccc(C(=O)N5CCC(F)(F)CC5)cc4)cc(-c4ccc(F)cc4)c3o2)cn1` [KPT-9274, (E)-3-(6-aminopyridin-3-yl)-N-[[5-[4-(4,4-difluoropiperidine-1-carbonyl)phenyl]-7-(4-fluorophenyl)-1-benzofuran-2-yl]methyl]prop-2-enamide], which “percentage of apoptotic cells” value ([1]; HDAC8 depletion) is on record?
Answer: significantly increase

Question: What about the “apoptosis of AML cells” value ([1]; SIRT6 depletion) of the same compound?
Answer: enhance apoptosis

Question: What about the “colony formation and long-term self-renewal” value ([2]; HDAC8 or SIRT6-depleted MOLM13 and Kasumi-1 cells) of the same compound?
Answer: suppressed colony formation

Question: What about the “cell differentiation (Giemsa staining of cytospin preparations)” value ([2]; KPT-9274 with depletion of HDAC8 or SIRT6, cells derived from CFU assays) of the same compound?
Answer: cooperatively differentiated AML cells

Question: What about the “colony numbers vs vehicle control” value ([2]; scramble groups, sublethal doses of KPT-9274) of the same compound?
Answer: comparable

Question: What about the “synergy of knockdown of IMPA2, HEXA, PTGS1 and DCPS with KPT-9274 treatment” value ([3]; MTS (FIG. 7A)) of the same compound?
Answer: did not demonstrate strong synergies

Question: What about the “impact of depletion of HDAC1, HDAC3 or HDAC6 with CRISPR on KPT-9274 sensitivity” value ([3]; MTS (FIG. 7B)) of the same compound?
Answer: did not have significant impact

Question: For `CC(C)[C@H](C(=O)Nc1ccc(C(=O)NO)cc1)c1ccccc1` [AR-42, (S)—N-Hydroxy-4-(3-methyl-2-phenylbutanamido)benzamide], which “death of leukemia stem cells” value [4] is on record?
Answer: induce death of leukemia stem cells

Question: And the tolerability of dose [5]?
Answer: tolerated
